Starred links: 1 amine or outer side, 2 acyl side, 3 side chain; linkers in the order of their positions; H or OH if unused. Positions of bridges follow the written chain, without caps; N, C: chain ends. Non-standard residues stand in square brackets, D forms with d. Residues, ends and D or L forms follow the SMILES beside them. X1 = O=C(CC1(S[*:2])CCCCC1)[*:1]
Assays:
pregnant baboon = test: Oxytocin challenge test in tethered pregnant baboon (antagonists-response interval); type: in vivo; conditions: for ARI (OTA/ANTI): ratio to ANTAG I
Description: The baboon is an excellent animal model because of its physiologic and anatomic similarity to humans (see articles by our laboratory: Am J Obstet Gynecol. 163:1815-1882, 1990; Am J Obstet Gynecol 165:456-560, 1991; Am J Obstet Gynecol 165:1487-1498, 1991; articles by other laboratories: Endocrine Reviews 11:124-150, 1990; 11:151-176, 1990). Pregnant tethered baboons were studied between 130 to 145 days of pregnancy Delivery=day 184). The oxytocin antagonists were administered as a single bolus injection of 1 mg intra-arterially followed 1 minute later by the infusion of oxytocin. […] This oxytocin antagonist was not produced in our laboratory and is not an oxytocin analog.

ADH = ADH bioassay (alteration in urine output due to ADH); type: in vivo; conditions: for ADH Bioassay pA2: in vivo
Description: The above compound was also tested for antagonism to vasopressin. Anti-ADH activity can be determined by measuring the alteration in urine output due to ADH in the presence and absence of the antagonist. A suitable ADH-assay is described in Sawyer, et al., Endocrinology, 63:694 (1958). […] The ratio of oxytocin antagonism to ADH antagonism was very high, viz. over 1, 866, as compared with 200 for the compositions disclosed in the parent applications.
The anti-ADH activity is measured by the alteration in urine […] in the presence and absence of the antagonist to determine the specificity of the antagonist. The anti-ADH assay is described in Sawyer, et al., Endocrinology, 63:694 (1958).

HUMAN OXYTOCIN RECEPTOR = target: T1, HUMAN OXYTOCIN RECEPTOR (Homo sapiens, UniProt P30559); test: Oxytocin receptor assay, human myometrial tissue membranes, 3H-OT competition; type: binding
T1 construct: Oxytocin receptors (OTrs) reside on the cell membrane and are present at high concentrations at the end of pregnancy in uterine tissue; from tissue; host or cells: human myometrium from cesarean section patients, sucrose-gradient membrane fraction
T1 sequence (P30559 1-389): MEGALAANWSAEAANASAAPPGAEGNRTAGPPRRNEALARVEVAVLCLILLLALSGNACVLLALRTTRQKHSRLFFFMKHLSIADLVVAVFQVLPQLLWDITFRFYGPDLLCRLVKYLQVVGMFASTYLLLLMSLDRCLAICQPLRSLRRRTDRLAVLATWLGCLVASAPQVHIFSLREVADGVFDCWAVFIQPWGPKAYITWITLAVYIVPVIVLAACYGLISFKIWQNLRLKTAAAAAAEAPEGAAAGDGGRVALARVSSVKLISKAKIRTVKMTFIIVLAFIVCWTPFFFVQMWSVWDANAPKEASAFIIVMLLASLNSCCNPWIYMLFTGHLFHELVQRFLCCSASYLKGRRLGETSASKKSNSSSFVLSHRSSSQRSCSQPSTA
Description: Human myometrial tissue was collected from patients at the time of cesarian section after informed consent. The tissue was rinsed in cold buffer, cut into small pieces and frozen at -70° C. until homogenization.
Oxytocin receptors (OTrs) reside on the cell membrane and are present at high concentrations at the end of pregnancy in uterine tissue. Frozen tissue is homogenized in Tris buffer, the homogenate filtered, and the filtrate centrifuged at 1000 g for 15 minutes at 4° C. The supernatant is centrifuged at 40,000 g for 30 minutes and the pellet containing the cell membranes resuspended in 10% sucrose. Density gradient ultracentrifugation is then performed by placing the 10 % sucrose suspension on top of 35% sucrose and centrifuging for 30 minutes in a swing bucket rotor at 105,000 g. The membranes at the interface of the 10%/35% sucrose are removed and resuspended in Tris buffer containing EDTA for 30 minutes. This procedure removes divalent cation and results in dissociation of any endogenously bound OT to the receptor. This mixture is then centrifuged for 15 minutes at 100,000 g and the pellet containing the membrane OTrs resuspended in Tris, PMSF, Mg^++, buffer by sonication.
The binding assay consist of 0.1 ml of 20,000 cmp of tritium labeled OT (New England Nuclear, […]), 0.1 ml of OT antagonist added at increasing concentration, 0.25 ml of buffer and 0.05 ml of membrane (70-150 ug protein). A nonspecific tube has 100× of cold OTA added to it. The incubation is for 30 minutes at 30 ° C. The membrane is pelleted by centrifugation in ultraclear mini tubes (5×41 mm) for 30 minutes at 105,000 g. The resulting pellet containing the bound ^3 H-OT is dissolved in 0.1N NaOH at 45 ° C. for 30 minutes and this mixture is then placed in liquid scintillation counting fluid and counted for dpms in a scintillation counter.
The data is analyzed by nonlinear curve fitting methods using McPherson's EBDA (J Pharmacol Methods 14:213-228, 1985) and Munson and Rodbard's LIGAND (Anal Biochem 107:220-239, 1980) program for saturation and competition analysis for determining Kds and Kis.

Row | Compound | ARI (antagonists-response interval) (pregnant baboon; 1 mg single bolus intra-arterially, then oxytocin infusion, pregnant baboon day 130-145) | time for which the response to oxytocin was blocked (pregnant baboon; one mg, pregnant baboon) | ARI (OTA/ANTI) (pregnant baboon) | ARI (OTA/ANTI) (pregnant baboon; listed as ANTAG III) | ARI (OTA/ANTI) (pregnant baboon; listed as compound D) | ADH Bioassay pA2 (ADH) | activity as a vasopressin antagonist (ADH; result in words) | Kd (HUMAN OXYTOCIN RECEPTOR)
1 | [(S)Pmp^1,D-Trp^2,Pen^6,Arg^8 ] oxytocin [Compound D] | 7856 | greater than 24 hours | 133 | 133 | about 130 | < 5.75 | very low activity | –
2 | CC[C@H](C)[C@@H]1NC(=O)[C@H](Cc2ccccc2)NC(=O)[C@@H](Cc2c[nH]c3ccccc23)NC(=O)CC2(CCCCC2)SSC[C@@H](C(=O)N2CCC[C@H]2C(=O)N[C@@H](CCCNC(=N)N)C(=O)NCC(N)=O)NC(=O)[C@H](CC(N)=O)NC1=O [Compound B, [Pmp^1,D-Trp^2,Phe^3,Ile^4,Arg^8] oxytocin] ([dW]FINCPRG-NH2; linker N-5 via X1) | – | – | – | – | – | 7.40 | – | 0.0196 µM

Reference: patent US5373089A, “Oxytocin antagonist” (Northwestern University, priority 1993, dated 1994)
